Source: the supplement of paper PMC10307832

Legend:
Assay in all cases: relative viability (nuclei count vs DMSO), 5 days (fraction); higher = more cells survive
[1] = compound: C1COCCN1CC2=CC(=O)C(=CO2)OCCCCCSC3=C4C=CC(=CC4=NC=C3)C(F)(F)F [EHT 1864] + O=C(CCCCCCC(=O)Nc1ccccc1)NO [Vorinostat] (partner 1 µM)
Procedure, shortened: (§1)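 Lung cancer cell lines in 1536-well plates got either a single drug or a fixed anchor-drug dose together with five library-drug doses (not always all listed) in √10 steps, by pin tool, on the day after seeding. Nuclei were counted after 5 days, and relative viability is the treated-to-vehicle ratio of nuclei counts. Values are medians of duplicate plates.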

[2] = compound: C1COCCN1CC2=CC(=O)C(=CO2)OCCCCCSC3=C4C=CC(=CC4=NC=C3)C(F)(F)F [EHT 1864] + Nc1nc2[nH]cc(CCc3ccc(C(=O)N[C@@H](CCC(=O)O)C(=O)O)cc3)c2c(=O)[nH]1 [Pemetrexed] (partner 0.2 µM)
Procedure, shortened: as §1

[3] = compound: C1COCCN1CC2=CC(=O)C(=CO2)OCCCCCSC3=C4C=CC(=CC4=NC=C3)C(F)(F)F [EHT 1864] + Cc1nc(Nc2ncc(C(=O)Nc3c(C)cccc3Cl)s2)cc(N2CCN(CCO)CC2)n1 [Dasatinib] (partner 0.075 µM)
Procedure, shortened: as §1

[4] = compound: C1COCCN1CC2=CC(=O)C(=CO2)OCCCCCSC3=C4C=CC(=CC4=NC=C3)C(F)(F)F [EHT 1864] + CC(=O)c1c(C)c2cnc(Nc3ccc(N4CCNCC4)cn3)nc2n(C2CCCC2)c1=O [Palbociclib] (partner 0.5 µM)
Procedure, shortened: as §1

| Cell Line | relative viability ([1]; first compound 0.04 µM) | relative viability ([1]; first compound 0.1265 µM) | relative viability ([1]; first compound 0.4 µM) | relative viability ([1]; first compound 1.265 µM) | relative viability ([1]; first compound 4 µM) | relative viability ([2]; first compound 0.04 µM) | relative viability ([2]; first compound 0.1265 µM) | relative viability ([2]; first compound 0.4 µM) | relative viability ([2]; first compound 1.265 µM) | relative viability ([2]; first compound 4 µM) | relative viability ([3]; first compound 0.04 µM) | relative viability ([3]; first compound 0.1265 µM) | relative viability ([3]; first compound 0.4 µM) | relative viability ([3]; first compound 1.265 µM) | relative viability ([3]; first compound 4 µM) | relative viability ([4]; first compound 0.04 µM) | relative viability ([4]; first compound 0.1265 µM) | relative viability ([4]; first compound 0.4 µM) | relative viability ([4]; first compound 1.265 µM) | relative viability ([4]; first compound 4 µM) |
| --- | --- | --- | --- | --- | --- | --- | --- | --- | --- | --- | --- | --- | --- | --- | --- | --- | --- | --- | --- | --- |
| NCI-H2023 | 0.692 | 0.381 | 0.591 | 0.699 | 0.784 | 0.232 | 0.258 | 0.166 | 0.201 | 0.197 | 0.568 | 0.628 | 0.508 | 0.517 | 0.577 | 0.33 | 0.318 | 0.354 | 0.382 | 0.364 |
| NCI-H2085 | 0.789 | 0.577 | 0.838 | 0.774 | 0.804 | 0.908 | 0.646 | 0.969 | 0.967 | 0.882 | 0.22 | 0.239 | 0.233 | 0.253 | 0.305 | 0.446 | 0.459 | 0.456 | 0.451 | 0.417 |
| NCI-H2087 | 0.436 |  | 0.798 | 0.727 | 0.572 | 0.691 |  | 0.596 | 0.642 | 0.657 | 0.851 |  | 0.758 | 0.846 | 0.825 | 0.266 |  | 0.223 | 0.156 | 0.224 |
| NCI-H2126 | 0.836 | 0.711 | 0.735 | 0.795 | 0.681 | 0.707 | 0.603 | 0.661 | 0.726 | 0.633 | 0.604 | 0.574 | 0.649 | 0.484 | 0.545 | 0.338 | 0.365 | 0.333 | 0.336 | 0.349 |
